# Values of other authors as cited in patent US7625919B2, “4-azasteroid derivatives as androgen receptor modulators” (priority 2002, dated 2009).
# How the values were obtained:
# [1] = after 7 years of treatment
# [2] = postmenopausal osteoporotic women, median of 22 months of treatment
compound,measurement,setting,value
"NCCCC(O)(P(=O)([O-])O)P(=O)(O)O.O.O.O.[Na+] [alendronate, (4-amino-1-hydroxybutylidene)-bis-phosphonate monosodium trihydrate]",increase in spinal BMD,[1],11%
"hPTH(1-34): human parathyroid hormone 1-34 fragment (SVSEIQLMHNLGKHLNSMERVEWLRKKLQDVHNF; Parathyroid hormone; UniProt P01270 32-65, looked up, fragment)",reduction in nonvertebral fractures,[2],54%
same,reduction in spine fractures,[2],≥ 65%
